Experimental data from PubChem BioAssay (NCI).
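These data come from cells grown in 96-well plates and exposed to compound for 48 hours at five concentrations. Abbreviation: GI50, concentration required for 50% inhibition of growth. The concentration for full growth arrest is given as TGI.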

Experiments:
Assay in all cases: NCI tumour cell line growth inhibition, 48 h
MDA-MB-435 = test system: MDA-MB-435
KM12 colon = test system: KM12 colon
TK-10 renal = test system: TK-10 renal
UACC-257 melanoma = test system: UACC-257 melanoma
OVCAR-4 ovarian = test system: OVCAR-4 ovarian
CAKI-1 renal = test system: CAKI-1 renal
DU-145 prostate = test system: DU-145 prostate
RXF 393 renal = test system: RXF 393 renal

| SMILES | TGI (MDA-MB-435) | TGI (KM12 colon) | TGI (TK-10 renal) | TGI (UACC-257 melanoma) | TGI (OVCAR-4 ovarian) | TGI (CAKI-1 renal) | TGI (DU-145 prostate) | GI50 (KM12 colon) | GI50 (RXF 393 renal) | TGI (RXF 393 renal) | GI50 (OVCAR-4 ovarian) | GI50 (DU-145 prostate) |
| --- | --- | --- | --- | --- | --- | --- | --- | --- | --- | --- | --- | --- |
| Cc1ccc(OCC2OC(n3cnc4c(N(C)C)nc(Br)nc43)CC2Oc2ccc(C)cc2)cc1 (stereo unspecified) | > 100 µM | > 100 µM | > 100 µM | > 100 µM | > 100 µM | > 100 µM | > 100 µM | – | – | – | – | – |
| CC(C)=CC(=O)O[C@H]1C(=O)O[C@@H]2C[C@H]3[C@H](C)C(=O)C(O[C@@H]4O[C@H](CO)[C@@H](O)[C@H](O)[C@H]4O)=C[C@]3(C)[C@H]3[C@@H](O)[C@H](O)[C@]4(C(=O)O)OC[C@]32[C@@H]14 | > 100 µM | > 100 µM | > 100 µM | > 100 µM | > 100 µM | > 100 µM | > 100 µM | 49.1 µM | 25.4 µM | 73.1 µM | 25.2 µM | > 100 µM |
| Cc1ccc(OCC2OC(n3cnc4nc(Cl)nc(Cl)c43)CC2Oc2ccc(C)cc2)cc1 (stereo unspecified) | 24.3 µM | 23.7 µM | 28.7 µM | 29.6 µM | 56.1 µM | 9.75 µM | 27.2 µM | – | – | 15.7 µM | – | – |
| O=C(CN1CCN(Cc2ccccc2)CC1)N1CCCn2c1nc1ccccc1c2=O | > 100 µM | > 100 µM | > 100 µM | > 100 µM | > 100 µM | > 100 µM | > 100 µM | – | – | – | – | – |
| O=C(/C=C/c1cccc(Br)c1)c1cccs1 | 25.5 µM | 31.6 µM | 31.5 µM | 33 µM | 31.8 µM | 32.6 µM | – | – | – | – | – | – |
| CCOC(=O)c1cc(C(=O)c2ccccc2)n2nc(-c3ccc(Cl)cc3)ccc12 | > 100 µM | 53.5 µM | 47.8 µM | 97.1 µM | 37.2 µM | 81.3 µM | 85.2 µM | – | – | 32.7 µM | – | – |
| O=c1/c(=C\c2ccccc2)sc2n1C(c1ccccc1)C1(O)CCCCC1N=2 (stereo unspecified) | > 100 µM | – | > 100 µM | > 100 µM | > 100 µM | > 100 µM | – | – | – | – | – | – |
| COc1cccc(-c2ccc3c4c2O[C@H]2c5[nH]c6ccccc6c5C[C@@]5(O)[C@@H](C3)N(CC3CC3)CC[C@]425)c1 | 3.18 µM | 3.26 µM | 3.48 µM | 3.2 µM | 3.27 µM | 4.9 µM | 6.91 µM | – | – | 3.03 µM | – | – |
| COc1ccc2[nH]c(Cl)c(/C=C3/C(=O)Nc4cc(C)c(OC)cc43)c2c1 | 3.51 µM | 23.2 µM | 21.3 µM | 23.6 µM | – | 21.7 µM | 29.4 µM | – | – | 27.9 µM | – | – |
| Clc1cc2c(c(CSC3=NCN(CC4CC4)CN3)c1)OCOC2 | 74.3 µM | > 100 µM | 40.8 µM | 33.1 µM | > 100 µM | > 100 µM | > 100 µM | – | – | 36.9 µM | – | – |
| FC(F)(F)c1ccccc1N1CCN(c2nc(-c3cccs3)nc3ccc(Br)cc23)CC1 | 63.3 µM | 83.7 µM | 97.3 µM | > 100 µM | > 100 µM | 94.5 µM | > 100 µM | – | – | – | – | – |
| C/C(=N/NC(=S)Nc1ccccc1Cl)c1cccc(/C(C)=N\NC(=S)Nc2ccccc2Cl)n1 | > 100 µM | > 100 µM | > 100 µM | > 100 µM | > 100 µM | > 100 µM | > 100 µM | – | – | > 100 µM | – | – |
